{"source": "patent US10851097B2", "about": "“4,5,6,7-tetrahydro-1H-imidazo[4,5-c]pyridine and 1,4,5,6,7,8-hexahydroimidazo[4,5-d]azepine derivatives as janus kinase inhibitors” (Topivert Pharma Limited, priority 2015, dated 2020)"}
{"test_system": "CD3/IL2 stimulated PBMC cells", "assay": "IFNγ release from CD3/IL2 stimulated PBMC cells (assay (a))", "format": "cell-based", "conditions": "Homo sapiens, CD3/IL2 stimulation, 48 h, ELISA", "method": "(a) IFNγ Release from CD3/IL2 Stimulated PBMC Cells\nPBMCs from healthy subjects are separated from whole blood using a density gradient (Lymphoprep, Axis-Shield Healthcare). Cells are added to a 96 well plate, and compound at the desired concentration added 2 hours prior to stimulation with a mixture of monoclonal antibody to CD3 (1 μg/ml, eBioscience) and human recombinant IL2 (10 ng/ml, Peprotech). After 48 hours incubation under normal tissue culture conditions, supernatants are collected and IFNγ release determined by Sandwich ELISA (Duo-set, R&D System). The IC50 is determined from the dose response curve.", "units": {"IC50": "µM"}}
{"smiles": "CCc1cc(O)c(F)cc1-c1ccc2c(-c3nc4c([nH]3)CCN(C(=O)c3cnc(N5C[C@H](O)[C@@H](O)[C@H](O)[C@H]5CO)cn3)C4)n[nH]c2c1", "note": "(stereo in doubt) [Example 2(s), (2-(6-(2-ethyl-5-fluoro-4-hydroxyphenyl)-1H-indazol-3-yl)-6,7-dihydro-1H-imidazo[4,5-c]pyridin-5(4H)-yl)(5-((2R,3R,4R,5S)-3,4,5-trihydroxy-2-(hydroxymethyl)piperidin-1-yl)pyrazin-2-yl)methanone]", "IC50": 0.694}
{"smiles": "CCc1cc(O)c(F)cc1-c1ccc2c(-c3nc4c([nH]3)CCN(C(=O)c3cnc(N(C)CCCC(=O)O)cn3)C4)n[nH]c2c1", "note": "[Example 2(a), 4-((5-(2-(6-(2-ethyl-5-fluoro-4-hydroxyphenyl)-1H-indazol-3-yl)-4,5,6,7-tetrahydro-1H-imidazo[4,5-c]pyridine-5-carbonyl)pyrazin-2-yl)(methyl)amino)butanoic acid]", "IC50": 0.732}
{"smiles": "CCc1cc(O)c(F)cc1-c1ccc2c(-c3nc4c([nH]3)CCN(C(=O)c3cnc(NCCN5CCC(O)CC5)cn3)C4)n[nH]c2c1", "note": "[Example 2(b), (2-(6-(2-ethyl-5-fluoro-4-hydroxyphenyl)-1H-indazol-3-yl)-1,4,6,7-tetrahydro-5H-imidazo[4,5-c]pyridin-5-yl)(5-((2-(4-hydroxypiperidin-1-yl)ethyl)amino)pyrazin-2-yl)methanone]", "IC50": 0.087}
{"smiles": "CCc1cc(O)c(F)cc1-c1ccc2c(-c3nc4c([nH]3)CCN(C(=O)c3cnc(N(C)Cc5ccccn5)cn3)C4)n[nH]c2c1", "note": "[Example 2(c), (2-(6-(2-ethyl-5-fluoro-4-hydroxyphenyl)-1H-indazol-3-yl)-1,4,6,7-tetrahydro-5H-imidazo[4,5-c]pyridin-5-yl)(5-(methyl(pyridin-2-ylmethyl)amino)pyrazin-2-yl)methanone]", "IC50": 0.037}
{"smiles": "CCc1cc(O)c(F)cc1-c1ccc2c(-c3nc4c([nH]3)CCN(C(=O)c3cnc(NCCN5CC[S+]([O-])CC5)cn3)C4)n[nH]c2c1", "note": "[Example 2(d), (2-(6-(2-ethyl-5-fluoro-4-hydroxyphenyl)-1H-indazol-3-yl)-1,4,6,7-tetrahydro-5H-imidazo[4,5-c]pyridin-5-yl)(5-((2-(1-oxidothiomorpholino)ethyl)amino)pyrazin-2-yl)methanone]", "IC50": 0.27}
{"smiles": "CCc1cc(O)c(F)cc1-c1ccc2c(-c3nc4c([nH]3)CCN(C(=O)c3cnc(NCCC5(O)CCN(C)CC5)cn3)C4)n[nH]c2c1", "note": "[Example 2(g), (2-(6-(2-ethyl-5-fluoro-4-hydroxyphenyl)-1H-indazol-3-yl)-1,4,6,7-tetrahydro-5H-imidazo[4,5-c]pyridin-5-yl)(5-((2-(4-hydroxy-1-methylpiperidin-4-yl)ethyl)amino)pyrazin-2-yl)methanone]", "IC50": 0.271}
{"smiles": "CCc1cc(O)c(F)cc1-c1ccc2c(-c3nc4c([nH]3)CCN(C(=O)c3cnc(N(CCO)CCO)cn3)C4)n[nH]c2c1", "note": "[Example 2(p), (5-(bis(2-hydroxyethyl)amino)pyrazin-2-yl)(2-(6-(2-ethyl-5-fluoro-4-hydroxyphenyl)-1H-indazol-3-yl)-6,7-dihydro-1H-imidazo[4,5-c]pyridin-5(4H)-yl)methanone]", "IC50": 0.154}
{"smiles": "CCc1cc(O)c(F)cc1-c1ccc2c(-c3nc4c([nH]3)CCN(C(=O)c3cnc(NCCN5CCCC5=O)cn3)C4)n[nH]c2c1", "note": "[Example 2(r), 1-(2-((5-(2-(6-(2-ethyl-5-fluoro-4-hydroxyphenyl)-1H-indazol-3-yl)-4,5,6,7-tetrahydro-1H-imidazo[4,5-c]pyridine-5-carbonyl)pyrazin-2-yl)amino)ethyl)pyrrolidin-2-one]", "IC50": 0.0908}
{"smiles": "CCc1cc(O)c(F)cc1-c1ccc2c(-c3nc4c([nH]3)CCN(C(=O)c3cnc(N(C)CCN5CCOC5=O)cn3)C4)n[nH]c2c1", "note": "[Example 2(u), 3-(2-((5-(2-(6-(2-ethyl-5-fluoro-4-hydroxyphenyl)-1H-indazol-3-yl)-4,5,6,7-tetrahydro-1H-imidazo[4,5-c]pyridine-5-carbonyl)pyrazin-2-yl)(methyl)amino)ethyl)oxazolidin-2-one]", "IC50": 0.0738}
